Results as given in patent EP2970215B1, “PYRROLIDINE DERIVATIVES, PHARMACEUTICAL COMPOSITIONS CONTAINING THEM, AND THEIR USE IN THERAPY” (AbbVie Deutschland GmbH & Co. KG, priority 2013, dated 2014).
pKi: −log10 of the molar value.

target: T1, human GlyT1c transporter (Homo sapiens, UniProt P48067); assay: Radioligand binding assay using recombinant CHO cell membranes expressing human GlyT1; settings: radioligand binding to human GlyT1c transporter-expressing membranes
T1 construct: expressed in transfected cells; host or cells: CHO cells (recombinant; line hGlyT1c_5_CHO is named for the uptake assay)
T1 sequence (P48067 1-706): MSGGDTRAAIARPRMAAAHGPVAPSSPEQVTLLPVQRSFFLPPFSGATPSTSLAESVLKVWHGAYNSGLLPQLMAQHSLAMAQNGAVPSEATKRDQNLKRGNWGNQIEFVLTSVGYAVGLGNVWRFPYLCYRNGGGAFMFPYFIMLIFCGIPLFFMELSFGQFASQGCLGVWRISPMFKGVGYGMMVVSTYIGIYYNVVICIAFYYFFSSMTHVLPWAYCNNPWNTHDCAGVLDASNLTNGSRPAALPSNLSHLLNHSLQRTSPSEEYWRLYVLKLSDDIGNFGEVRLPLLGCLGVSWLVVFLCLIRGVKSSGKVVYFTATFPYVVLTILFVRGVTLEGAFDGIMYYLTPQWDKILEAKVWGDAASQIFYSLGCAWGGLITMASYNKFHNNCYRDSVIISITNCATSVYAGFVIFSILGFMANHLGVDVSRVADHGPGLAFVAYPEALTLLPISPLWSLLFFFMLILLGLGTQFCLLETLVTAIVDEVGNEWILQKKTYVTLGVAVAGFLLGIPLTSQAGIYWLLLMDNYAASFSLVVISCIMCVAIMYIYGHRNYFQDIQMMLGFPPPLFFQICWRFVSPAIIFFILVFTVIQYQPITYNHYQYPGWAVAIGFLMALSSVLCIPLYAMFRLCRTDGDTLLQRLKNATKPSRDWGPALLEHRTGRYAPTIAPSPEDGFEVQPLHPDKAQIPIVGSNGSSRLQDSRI
Description: 2. Radioligand binding assays using recombinant CHO cell membranes expressing human GlyT1: […]

Row | Structure (SMILES) | pKi
1 | Cn1cnc(S(=O)(=O)N2C[C@@H](Nc3ccc4cnccc4c3)[C@H](c3ccccc3)C2)c1 (relative stereo) [Example 230, N-{trans-1-[(1-methyl-1H-imidazol-4-yl)sulfonyl]-4-phenylpyrrolidin-3-yl}isoquinolin-6-amine] | ≥ 5.00
2 | Cn1cnc(S(=O)(=O)N2C[C@@H](Nc3cc(F)ccc3F)[C@H](c3ccccc3)C2)c1 (relative stereo) [Example 232, trans-N-(2,5-difluorophenyl)-1-[(1-methyl-1H-imidazol-4-yl)sulfonyl]-4-phenylpyrrolidin-3-amine] | ≥ 5.00
3 | Cn1cnc(S(=O)(=O)N2C[C@@H](Nc3ccc(F)cc3F)[C@H](c3ccccc3)C2)c1 (relative stereo) [Example 233, trans-N-(2,4-difluorophenyl)-1-[(1-methyl-1H-imidazol-4-yl)sulfonyl]-4-phenylpyrrolidin-3-amine] | ≥ 5.00
4 | Cn1cnc(S(=O)(=O)N2C[C@@H](Nc3cccc(F)n3)[C@H](c3ccccc3)C2)c1 (relative stereo) [Example 235, 6-fluoro-N-{trans-1-[(1-methyl-1H-imidazol-4-yl)sulfonyl]-4-phenylpyrrolidin-3-yl}pyridin-2-amine] | ≥ 5.00
5 | Cn1cnc(S(=O)(=O)N2C[C@@H](Nc3ccnc(F)c3)[C@H](c3ccccc3)C2)c1 (relative stereo) [Example 236, 2-fluoro-N-{trans-1-[(1-methyl-1H-imidazol-4-yl)sulfonyl]-4-phenylpyrrolidin-3-yl}pyridin-4-amine] | ≥ 5.00
6 | Cn1cnc(S(=O)(=O)N2C[C@@H](Nc3cncc(F)c3)[C@H](c3ccccc3)C2)c1 (relative stereo) [Example 237, 5-fluoro-N-{trans-1-[(1-methyl-1H-imidazol-4-yl)sulfonyl]-4-phenylpyrrolidin-3-yl}pyridin-3-amine] | ≥ 5.00
7 | Cn1cnc(S(=O)(=O)N2C[C@@H](Nc3ccnc(F)c3)[C@H](c3ccc(F)cc3)C2)c1 (relative stereo) [Example 239, 2-fluoro-N-{trans-4-(4-fluorophenyl)-1-[(1-methyl-1H-imidazol-4-yl)sulfonyl]pyrrolidin-3-yl} pyridin-4-amine] | ≥ 5.00
8 | Cn1cnc(S(=O)(=O)N2C[C@@H](Nc3ccc4ccncc4c3)[C@H](c3ccccc3)C2)c1 (relative stereo) [Example 241, N-{trans-1-[(1-methyl-1H-imidazol-4-yl)sulfonyl]-4-phenylpyrrolidin-3-yl}isoquinolin-7-amine] | ≥ 5.00
9 | Cn1cnc(S(=O)(=O)N2C[C@@H](C(=O)Nc3ccccc3)[C@H](c3ccc(F)cc3)C2)c1 (relative stereo) [Example 242, trans-4-(4-fluorophenyl)-1-[(1-methyl-1H-imidazol-4-yl)sulfonyl]-N-phenylpyrrolidine-3-carboxamide] | ≥ 5.00
10 | Cn1cnc(S(=O)(=O)N2C[C@@H](COc3ccc(Cl)c(C(F)(F)F)c3)[C@H](c3ccc(F)cc3)C2)c1 (relative stereo) [Example 249, 4-{[trans-3-{[4-chloro-3-(trifluoromethyl)phenoxy]methyl}-4-(4-fluorophenyl)pyrrolidin-1-yl]sulfonyl}-1-methyl-1H-imidazole] | ≥ 6.00
11 | Cn1cnc(S(=O)(=O)N2C[C@@H](COc3cccc(C(F)(F)F)c3Cl)[C@H](c3ccc(F)cc3)C2)c1 (relative stereo) [Example 250, 4-{[trans-3-{[2-chloro-3-(trifluoromethyl)phenoxy]methyl}-4-(4-fluorophenyl)pyrrolidin-1-yl]sulfonyl}-1-methyl-1H-imidazole] | ≥ 5.00
12 | Cn1cnc(S(=O)(=O)N2C[C@@H](Nc3cccc(F)c3)[C@H](c3ccccc3Cl)C2)c1 (relative stereo) [Example 252, trans-4-(2-chlorophenyl)-N-(3-fluorophenyl)-1-[(1-methyl-1H-imidazol-4-yl)sulfonyl]pyrrolidin-3-amine] | ≥ 6.00
13 | Cn1cnc(S(=O)(=O)N2C[C@@H](Nc3ccc(F)cc3)[C@H](c3ccccc3Cl)C2)c1 (relative stereo) [Example 253, trans-4-(2-chlorophenyl)-N-(4-fluorophenyl)-1-[(1-methyl-1H-imidazol-4-yl)sulfonyl]pyrrolidin-3-amine] | ≥ 6.00
14 | Cn1cnc(S(=O)(=O)N2C[C@@H](Nc3ccc(Cl)cc3)[C@H](c3ccccc3Cl)C2)c1 (relative stereo) [Example 254, trans-4-(2-chlorophenyl)-N-(4-chlorophenyl)-1-[(1-methyl-1H-imidazol-4-yl)sulfonyl]pyrrolidin-3-amine] | ≥ 5.00
15 | Cn1cnc(S(=O)(=O)N2C[C@@H](Nc3ccc(C(F)(F)F)cc3)[C@H](c3ccccc3Cl)C2)c1 (relative stereo) [Example 256, trans-4-(2-chlorophenyl)-1-[(1-methyl-1H-imidazol-4-yl)sulfonyl]-N-[4-(trifluoromethyl)phenyl]pyrrolidin-3-amine] | ≥ 6.00
16 | Cn1cnc(S(=O)(=O)N2C[C@@H](Nc3ccc(F)c(C(F)(F)F)c3)[C@H](c3ccccc3Cl)C2)c1 (relative stereo) [Example 258, trans-4-(2-chlorophenyl)-N-[4-fluoro-3-(trifluoromethyl)phenyl]-1-[(1-methyl-1H-imidazol-4-yl)sulfonyl]pyrrolidin-3-amine] | ≥ 6.00

Now from value to compound:

Row | pKi | Structure (SMILES)
17 | ≥ 6.00 | Cn1cnc(S(=O)(=O)N2C[C@@H](Nc3cccc(F)c3F)[C@H](c3ccccc3)C2)c1 (relative stereo) [Example 231, trans-N-(2,3-difluorophenyl)-1-[(1-methyl-1H-imidazol-4-yl)sulfonyl]-4-phenylpyrrolidin-3-amine]
18 | ≥ 6.00 | Cn1cnc(S(=O)(=O)N2C[C@@H](Nc3ccc(F)c(F)c3F)[C@H](c3ccccc3)C2)c1 (relative stereo) [Example 234, trans-1-[(1-methyl-1H-imidazol-4-yl)sulfonyl]-4-phenyl-N-(2,3,4-trifluorophenyl)pyrrolidin-3-amine]
19 | ≥ 7.00 | Cn1cnc(S(=O)(=O)N2C[C@@H](Nc3cc(C(F)(F)F)ncn3)[C@H](c3ccccc3)C2)c1 (relative stereo) [Example 240, N-{trans-1-[(1-methyl-1H-imidazol-4-yl)sulfonyl]-4-phenylpyrrolidin-3-yl} -6-(trifluoromethyl)pyrimidin-4-amine]
20 | ≥ 6.00 | Cn1cnc(S(=O)(=O)N2C[C@@H](C(=O)Nc3ccc(C(F)(F)F)cc3)[C@H](c3ccc(F)cc3)C2)c1 (relative stereo) [Example 243, Trans-4-(4-fluorophenyl)-1-[(1-methyl-1H-imidazol-4-yl)sulfonyl]-N-[4-(trifluoromethyl)phenyl]pyrrolidine-3-carboxamide]
21 | ≥ 6.00 | Cn1cnc(S(=O)(=O)N2C[C@@H](C(=O)Nc3cc(Cl)cc(Cl)c3)[C@H](c3ccc(F)cc3)C2)c1 (relative stereo) [Example 244, Trans-N-(3,5-dichlorophenyl)-4-(4-fluorophenyl)-1-[(1-methyl-1H-imidazol-4-yl)sulfonyl]pyrrolidine-3-carboxamide]
22 | ≥ 7.00 | Cn1cnc(S(=O)(=O)N2C[C@@H](COc3ccccc3)[C@H](c3ccc(F)cc3)C2)c1 (relative stereo) [Example 245, 4-{[trans-3-(4-fluorophenyl)-4-(phenoxymethyl)pyrrolidin-1-yl]sulfonyl}-1-methyl-1H-imidazole]
23 | ≥ 7.00 | Cn1cnc(S(=O)(=O)N2C[C@@H](COc3ccc(Cl)cc3Cl)[C@H](c3ccc(F)cc3)C2)c1 (relative stereo) [Example 246, 4-{[trans-3-[(2,4-dichlorophenoxy)methyl]-4-(4-fluorophenyl)pyrrolidin-1-yl]sulfonyl}-1-methyl-1H-imidazole]
24 | ≥ 6.00 | Cn1cnc(S(=O)(=O)N2C[C@@H](COc3cccc(Cl)c3)[C@H](c3ccc(F)cc3)C2)c1 (relative stereo) [Example 248, 4-{[trans-3-[(3-chlorophenoxy)methyl]-4-(4-fluorophenyl)pyrrolidin-1-yl]sulfonyl}-1-methyl-1H-imidazole]
25 | ≥ 7.00 | Cn1cnc(S(=O)(=O)N2C[C@@H](COc3cccc(F)c3)[C@H](c3ccc(F)cc3)C2)c1 (relative stereo) [Example 251, 4-{[trans-3-[(3-fluorophenoxy)methyl]-4-(4-fluorophenyl)pyrrolidin-1-yl]sulfonyl}-1-methyl-1H-imidazole]
26 | ≥ 7.00 | Cn1cnc(S(=O)(=O)N2C[C@@H](Nc3cccc(C(F)(F)F)c3)[C@H](c3ccccc3Cl)C2)c1 (relative stereo) [Example 255, trans-4-(2-chlorophenyl)-1-[(1-methyl-1H-imidazol-4-yl)sulfonyl]-N-[3-(trifluoromethyl)phenyl]pyrrolidin-3-amine]
27 | ≥ 7.00 | Cn1cnc(S(=O)(=O)N2C[C@@H](Nc3ccc(F)c(Cl)c3)[C@H](c3ccccc3Cl)C2)c1 (relative stereo) [Example 257, trans-N-(3-chloro-4-fluorophenyl)-4-(2-chlorophenyl)-1-[(1-methyl-1H-imidazol-4-yl)sulfonyl]pyrrolidin-3-amine]
